Series [1] deals with E. coli ATCC25922. The series can be described thus: microbe, parasite or virus in culture. It is filed as cell-based. The following applies: Escherichia coli.
In series [2] the test system is S. aureus ATCC29213. The series can be described thus: Frequency of development of resistant bacteria. It is filed as cell-based, Staphylococcus aureus. The following applies: for FREQUENCY OF DEVELOPMENT OF RESISTANT BACTERIA (AVERAGE OF TWO MEASURED VALUES): about 70 hours. The protocol:
(§1) S. aureus ATCC29213 is Staphylococcus aureus, S. pneumoniae ATCC49619 is Streptococcus pneumoniae, and E. coli ATCC25922 is Escherichia coli. […]
(§2) The frequency of development of resistant bacteria was calculated by dividing the number of colonies developed on an agar medium having each drug concentration by the number of initially inoculated bacteria.

For series [3], the system named is E. coli ATCC25922. Nature of the series: Frequency of development of resistant bacteria. It is filed as cell-based, Escherichia coli. The following applies: for FREQUENCY OF DEVELOPMENT OF RESISTANT BACTERIA (AVERAGE OF TWO MEASURED VALUES): about 70 hours. The protocol: as §1, §2
In series [4] the test system is S. pneumoniae ATCC49619. The series can be described thus: Frequency of development of resistant bacteria. It is filed as cell-based, Streptococcus pneumoniae. The following applies: for FREQUENCY OF DEVELOPMENT OF RESISTANT BACTERIA (AVERAGE OF TWO MEASURED VALUES): about 70 hours. As for the experimental part:
as §1, §2

A short description of series [5]: Concentration in tissue (rat, oral administration), radioactivity. It is filed as in vivo. The following applies: SD rat, single oral 10.83 mg/kg; for RADIOACTIVITY CONCENTRATION IN TISSUE, LUNG / RADIOACTIVITY CONCENTRATION IN TISSUE, PLASMA: fasting. The protocol:
The compound C (10.83 mg/kg) (solvent: water) was single orally administrated to a SD rat under fasting. 1, 6, and 24 hours after the administration, the lung tissue and the plasma were collected. The lung tissue was dried and treated by a sample oxidizer system (Sample Oxidizer: Model 307, PerkinElmer Inc., glass vial: 20 mL, Wheaton Industries, carbon dioxide absorbent: Carbo-Sorb 8 mL, PerkinElmer Inc., scintillation cocktail: Permafluor 12 mL, PerkinElmer Inc.), and the radioactivity concentration was measured. The plasma was fractionated in a midi-vial (8 mL, PerkinElmer Inc.), 6 mL of scintillation cocktail (Ultima Gold) was added, and the radioactivity concentration was measured. The radioactivity concentration was measured using a liquid scintillation counter (Tri-Carb 2500TR or 2700TR, PerkinElmer Inc.) (average value, n=3).

SMILES strings stand for the structures. Converted amounts (≈) assume the structure as drawn. Marks after values point to notes of the source that are not given here.

Molecule `O=C(O)c1cn(C2CC2)c2cc(N3CCNCC3)c(F)cc2c1=O` [CPFX, ciprofloxacin] displayed an MIC in series [1] of 8 ng/mL (≈ 0.0241 µM). The “development of resistant bacteria (in words)” value was “developed” in series [2] (S. aureus ATCC29213, 4 to 16 × MIC); “developed” in series [3] (E. coli ATCC25922, 4 to 16 × MIC); “developed” in series [4] (S. pneumoniae ATCC49619, 4 to 16 × MIC). The “FREQUENCY OF DEVELOPMENT OF RESISTANT BACTERIA (AVERAGE OF TWO MEASURED VALUES)” value is 6.2 × 10^−9* in series [2] (S. aureus ATCC29213, 4 × MIC); 3.1 × 10^−9* in series [2] (S. aureus ATCC29213, 8 × MIC); <2.1 × 10^−9 in series [2] (S. aureus ATCC29213, 16 × MIC); 1.2 × 10^−8* in series [3] (E. coli ATCC25922, 4 × MIC); <1.9 × 10^−9 in series [3] (E. coli ATCC25922, 8 × MIC); <1.9 × 10^−9 in series [3] (E. coli ATCC25922, 16 × MIC). The “FREQUENCY OF DEVELOPMENT OF RESISTANT BACTERIA (AVERAGE OF TWO MEASURED VALUES)” value is on record as 1.1 × 10^−8* in series [4] (S. pneumoniae ATCC49619, 4 × MIC); <1.1 × 10^−8 in series [4] (S. pneumoniae ATCC49619, 8 × MIC); <1.1 × 10^−8 in series [4] (S. pneumoniae ATCC49619, 16 × MIC).
On to `COc1c(N2C[C@H](CNC3CC3)[C@H](F)C2)c(F)cc2c(=O)c(C(=O)O)cn(CCF)c12.Cl` [Compound C, 7-[(3S,4S)-3-{(cyclopropylamino)methyl}-4-fluoropyrrolidine-1-yl]-6-fluoro-1-(2-fluoroethyl)-8-methoxy-4-oxo-1,4-dihydro[2-^14C1]quinoline-3-carboxylic acid hydrochloride], for which, in series [5] (1 hr), the “RADIOACTIVITY CONCENTRATION IN TISSUE, LUNG” value is reported as 10.3 μg eq./mL or g; the “RADIOACTIVITY CONCENTRATION IN TISSUE, PLASMA” value was 2.79 μg eq./mL or g; the “TISSUE DISTRIBUTION RATIO, LUNG” value came out at 3.7. For the same molecule, in series [5] (6 hr), the “RADIOACTIVITY CONCENTRATION IN TISSUE, LUNG” value is recorded as 2.44 μg eq./mL or g; the “RADIOACTIVITY CONCENTRATION IN TISSUE, PLASMA” value was 0.815 μg eq./mL or g; the “TISSUE DISTRIBUTION RATIO, LUNG” value turned out to be 3.0. In series [5] (24 hr), the “RADIOACTIVITY CONCENTRATION IN TISSUE, LUNG” value was 0.0541 μg eq./mL or g; the “RADIOACTIVITY CONCENTRATION IN TISSUE, PLASMA” value is given as 0.0294 μg eq./mL or g; the “TISSUE DISTRIBUTION RATIO, LUNG” value is on record as 1.9.
